Experimental data: PubChem BioAssay (NCI)
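All cell lines were grown in 96-well plates and treated with compound for 48 hours. The concentration for 50% growth inhibition is given as GI50. At the TGI there is no net growth.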

What was measured:
Experiment in all cases: NCI-60 cell line screen, 48 h
DU-145 prostate = tested on: DU-145 prostate
A549 NSCLC = tested on: A549 NSCLC
MDA-MB-435 = tested on: MDA-MB-435
CAKI-1 renal = tested on: CAKI-1 renal
RPMI-8226 leukemia = tested on: RPMI-8226 leukemia
SF-268 CNS = tested on: SF-268 CNS
SK-MEL-2 melanoma = tested on: SK-MEL-2 melanoma
COLO 205 colon = tested on: COLO 205 colon
U251 CNS = tested on: U251 CNS
OVCAR-8 ovarian = tested on: OVCAR-8 ovarian
HOP-92 NSCLC = tested on: HOP-92 NSCLC
TK-10 renal = tested on: TK-10 renal
HL-60(TB) leukemia = tested on: HL-60(TB) leukemia
NCI-H226 lung = tested on: NCI-H226 lung
HT29 colon = tested on: HT29 colon
HOP-62 NSCLC = tested on: HOP-62 NSCLC
NCI-H23 lung = tested on: NCI-H23 lung
IGROV1 ovarian = tested on: IGROV1 ovarian
KM12 colon = tested on: KM12 colon
M14 melanoma = tested on: M14 melanoma
SK-MEL-28 melanoma = tested on: SK-MEL-28 melanoma
SN12C renal = tested on: SN12C renal
SW-620 colon = tested on: SW-620 colon
K-562 leukemia = tested on: K-562 leukemia
MALME-3M melanoma = tested on: MALME-3M melanoma
SNB-75 CNS = tested on: SNB-75 CNS
786-0 renal = tested on: 786-0 renal
BT-549 breast = tested on: BT-549 breast
UACC-257 melanoma = tested on: UACC-257 melanoma
SF-539 CNS = tested on: SF-539 CNS
LOX IMVI melanoma = tested on: LOX IMVI melanoma
CCRF-CEM leukemia = tested on: CCRF-CEM leukemia
OVCAR-4 ovarian = tested on: OVCAR-4 ovarian
NCI/ADR-RES ovarian = tested on: NCI/ADR-RES ovarian
EKVX NSCLC = tested on: EKVX NSCLC
SK-MEL-5 melanoma = tested on: SK-MEL-5 melanoma
NCI-H460 lung = tested on: NCI-H460 lung
HCC-2998 colon = tested on: HCC-2998 colon
SNB-19 CNS = tested on: SNB-19 CNS
NCI-H522 lung = tested on: NCI-H522 lung
PC-3 prostate = tested on: PC-3 prostate
HCT-15 colon = tested on: HCT-15 colon
HCT-116 colon = tested on: HCT-116 colon
SF-295 CNS = tested on: SF-295 CNS
OVCAR-5 ovarian = tested on: OVCAR-5 ovarian
ACHN renal = tested on: ACHN renal
MDA-MB-231 breast = tested on: MDA-MB-231 breast
MOLT-4 leukemia = tested on: MOLT-4 leukemia
SR leukemia = tested on: SR leukemia
MCF7 breast = tested on: MCF7 breast
A498 renal = tested on: A498 renal
RXF 393 renal = tested on: RXF 393 renal
SK-OV-3 ovarian = tested on: SK-OV-3 ovarian
UACC-62 melanoma = tested on: UACC-62 melanoma
UO-31 renal = tested on: UO-31 renal
OVCAR-3 ovarian = tested on: OVCAR-3 ovarian

`Cc1c(CN)c(C)c(CN)c(C)c1CN` was tested, and the TGI (DU-145 prostate) was > 100000 nM, the TGI (A549 NSCLC) was > 100000 nM and the TGI (MDA-MB-435) was > 100000 nM. For the same compound, the TGI (CAKI-1 renal) was > 100000 nM, the TGI (RPMI-8226 leukemia) was > 100000 nM and the TGI (SF-268 CNS) was > 100000 nM. The TGI (SK-MEL-2 melanoma) was > 100000 nM, the TGI (COLO 205 colon) was > 100000 nM and the TGI (U251 CNS) was > 100000 nM. For the same compound, the TGI (OVCAR-8 ovarian) was > 100000 nM, the TGI (HOP-92 NSCLC) was > 100000 nM and the TGI (TK-10 renal) was > 100000 nM. The TGI (HL-60(TB) leukemia) was > 100000 nM, the TGI (NCI-H226 lung) was > 100000 nM and the TGI (HT29 colon) was > 100000 nM. For the same compound, the TGI (HOP-62 NSCLC) was > 100000 nM, the TGI (NCI-H23 lung) was 94500 nM and the TGI (IGROV1 ovarian) was > 100000 nM. The TGI (KM12 colon) was > 100000 nM, the TGI (M14 melanoma) was > 100000 nM and the TGI (SK-MEL-28 melanoma) was > 100000 nM. The TGI (SN12C renal) was > 100000 nM, the TGI (SW-620 colon) was > 100000 nM and the TGI (K-562 leukemia) was > 100000 nM. The TGI (MALME-3M melanoma) was > 100000 nM, the TGI (SNB-75 CNS) was > 100000 nM and the TGI (786-0 renal) was > 100000 nM. The TGI (BT-549 breast) was > 100000 nM, the TGI (UACC-257 melanoma) was > 100000 nM and the TGI (SF-539 CNS) was > 100000 nM. For the same compound, the TGI (LOX IMVI melanoma) was > 100000 nM, the TGI (CCRF-CEM leukemia) was > 100000 nM and the TGI (OVCAR-4 ovarian) was > 100000 nM. For the same compound, the TGI (NCI/ADR-RES ovarian) was > 100000 nM, the TGI (EKVX NSCLC) was > 100000 nM and the TGI (SK-MEL-5 melanoma) was > 100000 nM. The TGI (NCI-H460 lung) was > 100000 nM, the TGI (HCC-2998 colon) was > 100000 nM and the TGI (SNB-19 CNS) was > 100000 nM. The TGI (NCI-H522 lung) was > 100000 nM, the TGI (PC-3 prostate) was > 100000 nM and the TGI (HCT-15 colon) was > 100000 nM. For the same compound, the TGI (HCT-116 colon) was > 100000 nM, the TGI (SF-295 CNS) was > 100000 nM and the TGI (OVCAR-5 ovarian) was > 100000 nM. The TGI (ACHN renal) was > 100000 nM, the TGI (MDA-MB-231 breast) was > 100000 nM and the TGI (MOLT-4 leukemia) was > 100000 nM. For the same compound, the TGI (SR leukemia) was > 100000 nM and the TGI (MCF7 breast) was > 100000 nM.

For `O=C1N=C(c2c(-c3[nH]c(=O)c4ccc(Br)cc4c3O)c(O)c3ccccc3c2O)C(=O)c2cc(Br)ccc21`, the GI50 (A498 renal) was 4.4 nM, the TGI (A498 renal) was > 16700 nM and the GI50 (DU-145 prostate) was 427 nM. For the same compound, the TGI (DU-145 prostate) was 1110 nM, the GI50 (A549 NSCLC) was 577 nM and the TGI (A549 NSCLC) was > 16700 nM. For the same compound, the GI50 (MDA-MB-435) was 1030 nM, the TGI (MDA-MB-435) was 4740 nM and the GI50 (CAKI-1 renal) was 379 nM. The TGI (CAKI-1 renal) was 1030 nM, the GI50 (RPMI-8226 leukemia) was > 3430 nM and the TGI (RPMI-8226 leukemia) was > 16700 nM. For the same compound, the TGI (SK-MEL-2 melanoma) was > 4940 nM, the GI50 (COLO 205 colon) was > 16700 nM and the TGI (COLO 205 colon) was > 16700 nM. The GI50 (U251 CNS) was 370 nM, the TGI (U251 CNS) was 798 nM and the GI50 (OVCAR-8 ovarian) was 526 nM. The TGI (OVCAR-8 ovarian) was > 16700 nM, the GI50 (HOP-92 NSCLC) was > 16700 nM and the TGI (HOP-92 NSCLC) was > 16700 nM. For the same compound, the GI50 (TK-10 renal) was 484 nM, the TGI (TK-10 renal) was 1180 nM and the GI50 (HL-60(TB) leukemia) was > 16700 nM. For the same compound, the TGI (HL-60(TB) leukemia) was > 16700 nM, the GI50 (NCI-H226 lung) was 335 nM and the TGI (NCI-H226 lung) was 937 nM. For the same compound, the GI50 (HT29 colon) was > 8040 nM, the TGI (HT29 colon) was > 16700 nM and the GI50 (HOP-62 NSCLC) was 292 nM. It also gave a TGI (HOP-62 NSCLC) of 660 nM, a GI50 (NCI-H23 lung) of 300 nM and a TGI (NCI-H23 lung) of 785 nM. For the same compound, the GI50 (IGROV1 ovarian) was 493 nM, the TGI (IGROV1 ovarian) was 1410 nM and the GI50 (KM12 colon) was 566 nM. The TGI (KM12 colon) was 1970 nM, the GI50 (M14 melanoma) was 523 nM and the TGI (M14 melanoma) was 1600 nM. For the same compound, the GI50 (SK-MEL-28 melanoma) was 375 nM, the TGI (SK-MEL-28 melanoma) was 926 nM and the GI50 (SN12C renal) was 359 nM. For the same compound, the TGI (SN12C renal) was 790 nM, the GI50 (K-562 leukemia) was 593 nM and the TGI (K-562 leukemia) was > 16700 nM. The GI50 (RXF 393 renal) was 296 nM, the TGI (RXF 393 renal) was 646 nM and the GI50 (MALME-3M melanoma) was 367 nM. The TGI (MALME-3M melanoma) was 770 nM, the GI50 (SNB-75 CNS) was 261 nM and the TGI (SNB-75 CNS) was 537 nM. For the same compound, the GI50 (786-0 renal) was 360 nM, the TGI (786-0 renal) was 805 nM and the GI50 (BT-549 breast) was 422 nM. It also gave a TGI (BT-549 breast) of 1350 nM, a GI50 (UACC-257 melanoma) of 480 nM and a TGI (UACC-257 melanoma) of 1110 nM. The GI50 (SK-OV-3 ovarian) was 388 nM, the TGI (SK-OV-3 ovarian) was 1220 nM and the GI50 (LOX IMVI melanoma) was 281 nM. For the same compound, the TGI (LOX IMVI melanoma) was 554 nM, the GI50 (CCRF-CEM leukemia) was 930 nM and the TGI (CCRF-CEM leukemia) was > 16700 nM. For the same compound, the GI50 (NCI/ADR-RES ovarian) was 363 nM, the TGI (NCI/ADR-RES ovarian) was 1080 nM and the GI50 (EKVX NSCLC) was 353 nM. It also gave a TGI (EKVX NSCLC) of 1530 nM, a GI50 (SK-MEL-5 melanoma) of 479 nM and a TGI (SK-MEL-5 melanoma) of 1470 nM. It also gave a GI50 (NCI-H460 lung) of 417 nM, a TGI (NCI-H460 lung) of 1020 nM and a GI50 (HCC-2998 colon) of 347 nM. The TGI (HCC-2998 colon) was 832 nM, the TGI (UACC-62 melanoma) was > 16700 nM and the GI50 (SNB-19 CNS) was 611 nM. For the same compound, the TGI (SNB-19 CNS) was > 16700 nM, the GI50 (UO-31 renal) was 287 nM and the TGI (UO-31 renal) was 638 nM. It also gave a GI50 (OVCAR-3 ovarian) of 388 nM, a TGI (OVCAR-3 ovarian) of 932 nM and a GI50 (NCI-H522 lung) of 359 nM. For the same compound, the TGI (NCI-H522 lung) was 1110 nM, the GI50 (HCT-15 colon) was 306 nM and the TGI (HCT-15 colon) was 672 nM. The GI50 (HCT-116 colon) was 378 nM, the TGI (HCT-116 colon) was 1000 nM and the GI50 (OVCAR-5 ovarian) was > 8370 nM. The TGI (OVCAR-5 ovarian) was > 16700 nM, the GI50 (ACHN renal) was 333 nM and the TGI (ACHN renal) was 908 nM. For the same compound, the GI50 (MDA-MB-231 breast) was 585 nM, the TGI (MDA-MB-231 breast) was > 16700 nM and the GI50 (MOLT-4 leukemia) was > 3710 nM. For the same compound, the TGI (MOLT-4 leukemia) was > 16700 nM, the GI50 (SR leukemia) was 944 nM and the TGI (SR leukemia) was > 16700 nM. For the same compound, the GI50 (MCF7 breast) was 335 nM and the TGI (MCF7 breast) was 1210 nM.
